This passage reports IC50 and MCC results from ChEMBL document CHEMBL1146588, “Ancistrotanzanine A, the first 5,3'-coupled naphthylisoquinoline alkaloid, and two further, 5,8'-linked related compounds from the newly described species Ancistrocladus tanzaniensis” (J Nat Prod, 2003).

Each structure is given as a SMILES string. Converted amounts (≈) assume the structure as drawn.

For orientation: IC50 means the concentration that gives 50% inhibition. Lower therefore signals higher potency.

Data set [1] concerns Plasmodium falciparum. Kind of data set: Antimalarial activity against Plasmodium falciparum 3D7. In kind it is functional, organism-based.
In data set [2] the test system is Trypanosoma brucei rhodesiense. Kind of data set: Antitrypanosomal activity against Trypanosoma brucei rhodesiense. In kind it is functional, organism-based.
Data set [3] has as its system Plasmodium falciparum. Kind of data set: Antimalarial activity against Plasmodium falciparum K1. In kind it is functional, organism-based.
A further data set has as its system Leishmania donovani. Kind of data set: Antileishmanial activity against Leishmania donovani. In kind it is functional, organism-based.
Data set [4] in a line: Cytotoxicity against rat L6 cells. In kind it is cell-based. As to conditions: read-out: MIC.
For the next data set, the system named is Trypanosoma cruzi. Kind of data set: Antitrypanosomal activity against Trypanosoma cruzi. In kind it is functional, organism-based.

Consider `COc1cc(OC)c(-c2ccc(OC)c3c(OC)cc(C)cc23)c2c1C(C)=N[C@@H](C)C2` [ANCISTROEALAINE A], for which the IC50 in the data set with Plasmodium falciparum [1] amounted to 5 µg/mL (≈ 11.9 µM); in data set [2], 0.7 µg/mL (≈ 1.67 µM); in the data set on Plasmodium falciparum [3], 0.3 µg/mL (≈ 0.715 µM); in the data set with Leishmania donovani it was 1.6 µg/mL (≈ 3.81 µM); in the data set on Trypanosoma cruzi it was 1.5 µg/mL (≈ 3.58 µM). Further, in data set [4], the MCC is 8.1 µg/mL.
On to `COc1cc(OC)c(-c2c(C)cc3cccc(OC)c3c2O)c2c1C(C)=N[C@@H](C)C2` [ANCISTROTANZANINE A], for which the IC50 in data set [2] worked out at 0.7 µg/mL (≈ 1.73 µM); in the data set on Plasmodium falciparum [3], 0.3 µg/mL (≈ 0.74 µM); in the data set with Leishmania donovani, 1.8 µg/mL (≈ 4.44 µM); in the data set on Trypanosoma cruzi, 1.7 µg/mL (≈ 4.19 µM). Further, in data set [4], the MCC is 6.4 µg/mL.
Take `COc1cc(OC)c2c(c1-c1ccc(OC)c3c(OC)cc(C)cc13)C[C@H](C)N[C@H]2C` [ANCISTROTECTORILINE A]: the IC50 in the data set on Plasmodium falciparum [1] was 14 µg/mL (≈ 33.2 µM); in data set [2], 2.1 µg/mL (≈ 4.98 µM); with Plasmodium falciparum [3] it was 0.5 µg/mL (≈ 1.19 µM); in the data set on Leishmania donovani, more than 10 µg/mL; in the data set with Trypanosoma cruzi, 17.8 µg/mL (≈ 42.2 µM). Moreover, the MCC in data set [4] turned out to be 6.5 µg/mL.
`O=C(Cn1ccnc1[N+](=O)[O-])NCc1ccccc1` [BENZNIDAZOLE] yielded an IC50 in the data set with Trypanosoma cruzi of 0.42 µg/mL (≈ 1.61 µM).
Molecule `Nc1nc(N)nc(Nc2ccc([As]3SCC(CO)S3)cc2)n1` (stereo not given) [MELARSOPROL] showed an IC50 in data set [2] of 0.001 µg/mL.
For the molecule `CCCCCCCCCCCCCCCCOP(=O)([O-])OCC[N+](C)(C)C` [MILTEFOSINE], the IC50 in the data set with Leishmania donovani came to 0.305 µg/mL (≈ 0.748 µM).
